According to patent publication US11028086B2, “Pyrido-imidazo rifamycins” (Biofer S.p.A., priority 2017, dated 2021):
Converted amounts (≈) assume the structure as drawn. “And” between values parts separate entries of the source, which are not always exact repeats. Equal values may be shown once. Read-outs that look alike come from different tables or passages of the source.

How the values were obtained:
[1] = Pharmacokinetics after oral administration in male rats; conditions: Sprague-Dawley, rat, in vivo
Method: (§1) To 0.250 mL of this solution, 4.750 mL of saline are added, obtaining a final 0.2 mg/mL (5% DMSO, 95% saline) solution. A volume of 5 mL/Kg is administered to 3 rats in each group to have a 1 mg/Kg dose for each of the two products. • Oral Administration of RFX and Derivative 3: the two products were dissolved in DMSO obtaining two solutions having a 60 mg/mL concentration (stock solutions). To 0.5 mL of each solution, 2.0 mL of PEG 400 and 7.5 mL of saline solution were added under stirring, obtaining a stable suspension with a nominal concentration of 3 mg/mL. A volume equal to a 30 mg/kg dose is administered to the animal.
(§2) Male Sprague Dawley rats, weighing between 250 and 300 g, were used in the study. The animals were housed and observed before the experiment according to an approved GMP protocol according to Italian legislation.
(§3) The rats were divided into three groups: • Group 1: i.v. treatment • Group 2: oral treatment for blood sampling • Group 3: oral treatment for urine and stool collection
(§4) Plasma: the calibration curve and the QC samples were prepared in untreated rat plasma, adding 5 μL of each stock solution to 45 μL of untreated rat plasma. The 50 μL of plasma obtained were diluted up to 100 μL with cold acetonitrile containing the Internal Standard (I.S.) at the final concentration of 50 ng/mL, and centrifuged for 5 min. at 9000 rpm at 5° C. The supernatant was transferred to a 96-well plate for analysis. The samples of Groups 1 and 2 were similarly prepared using 50 μL of plasma from the treated rats.
(§5) A non-compartmental analysis was applied, and the following pharmacokinetic parameters were considered for each subject:
(§6) The concentration data were extrapolated using the Analyst™ 6.1 software (Applied Biosystems); the AUCs were calculated using a linear-trapezoidal method, and a weight uniformity was performed as the first approach. The concentration/time graphs were performed after logarithmic transformation of the results using PK Solver 2.0 software, Excel 2007 Microsoft add in.

Escherichia Coli NK12 = experiment: MIC by serial dilution, Strain D; format: cell-based; conditions: COLINK12, range between last concentration with growth and first without growth
Method: (§7) The MICs were calculated using the serial dilution method, and are expressed as the range between the last concentration at which the bacterial strain grows and the first concentration at which the strain tested no longer grows.

Lactobacillus = experiment: qPCR count of intestinal bacteria in rat stool after 5 days oral treatment; format: in vivo, Sprague Dawley rats; conditions: for cell count average value Lactobacillus: group average of cell counts; for Ct Values Lactobacillus / Cell Count Lactobacillus: individual rats, listed as RFX; for Ct Values Lactobacillus: average of three qPCR analyses; for Cell Count Lactobacillus: derived from Ct values
Method: (§8) The stools were collected at T0 and the day after the last treatment.
(§9) The two products were first dissolved in DMSO at the concentration of 100 mg/mL (stock solution), then to 0.5 mL of each solution 2.0 mL of PEG 400 and 7.5 mL of saline solution were added, under stirring. A stable suspension at the nominal concentration of 5 mg/mL is obtained. A volume of 10 mL/kg, equal to 50 mg/kg, is administered.
(§10) The detection method is based on isolation of the total genomic DNA from each stool sample, using a specific commercial kit. After the quali-quantitative evaluation of the DNA, the same DNA samples were stored at −20° C. Quantitative analyzes were performed using qPCR Real Time with the use of a DNA primer couples specific for Bifidobacterium, Enterococcus, Enterobacter, and Lactobacillus species.
(§11) DNA isolation was performed using the PowerFecal® DNA Isolation Kit (MO BIO Laboratories) commercial kit on a sample of 250 mg stool, each time. After isolation, the DNA samples were evaluated by spectrophotometric analysis. Each DNA sample was quantified in the 60-100 ng/μL range (high in proteins and sugars), as typical for stool-derived DNA.
(§12) Each sample was evaluated three times. For each DNA sample and for each specific DNA primer couple, the analysis provided a CT value that resulted to be correlated to the amount of DNA specific to the bacterial species, therefore closely correlated to the number of bacterial cells of that species present in the stool sample.
(§13) For relative quantification, a “generalized linear mixed model (GLMM) under Poisson-lognormal error” was applied. MCMC.qPCR R package was used to convert CT values into bacterial cell numbers. For the conversion, the formula: Number of cells=E(Ct1−Ct) was used, where E represents the efficiency of amplification, which in the present case assumes the value of 2. Ct1 represents the number of qPCR cycles needed to detect a single target molecule (in this study Ct1 is supposed to have the value of 39).
(§14) The Markov Chain Monte Carlo algorithm (MCMC) was used to estimate the effect of time on the development levels of each microbial genus. The GLMM method was used to verify if the levels of each bacterial genus at T0 and T5 differ. Furthermore, a statistical analysis to evaluate the significance of the differences between the T0 and T5 values was performed.

Enterococcus = experiment: as above; format: in vivo, Sprague Dawley rats; conditions: for cell count average value Enterococcus: group average of cell counts; for Ct Values Eterococcus / Cell Count Eterococcus: individual rats, listed as RFX; for Ct Values Eterococcus: average of three qPCR analyses; for Cell Count Eterococcus: derived from Ct values
Method: as §8, §9, §10, §11, §12, §13, §14

Bifidobacterium = experiment: as above; format: in vivo, Sprague Dawley rats; conditions: for cell count average value Bifidobacterium: group average of cell counts; for Ct Values Bifidobacterium / Cell Count Bifidobacterium: individual rats, listed as RFX; for Ct Values Bifidobacterium: average of three qPCR analyses; for Cell Count Bifidobacterium: derived from Ct values
Method: as §8, §9, §10, §11, §12, §13, §14

Enterobacter = experiment: as above; format: in vivo, Sprague Dawley rats; conditions: for cell count average value Enterobacter: group average of cell counts; for Ct Values Enterobacter / Cell Count Enterobacter: individual rats, listed as RFX; for Ct Values Enterobacter: average of three qPCR analyses; for Cell Count Enterobacter: derived from Ct values
Method: as §8, §9, §10, §11, §12, §13, §14

[2] = Pharmacokinetics after intravenous administration in male rats; conditions: Sprague-Dawley, rat, in vivo, 1 mg/kg
Method: as §1, §2, §3, §4, §5, §6

[3] = test system: Bacillus Subtilis ATCC 6633; experiment: MIC by serial dilution, Strain B; format: cell-based; conditions: ATCC6633, range between last concentration with growth and first without growth
Method: as §7

[4] = test system: Escherichia Coli ATCC 25922; experiment: MIC by serial dilution, Strain C; format: cell-based; conditions: ATCC25922, range between last concentration with growth and first without growth
Method: as §7

[5] = test system: Staphylococcus aureus IM149; experiment: MIC by serial dilution, Strain A; format: cell-based; conditions: range between last concentration with growth and first without growth
Method: as §7

[6] = cited from earlier work
[7] = T5 (day after 5 days oral 50 mg/kg)
[8] = T5 (day after 5 days oral 50 mg/kg), 50 mg/kg
[9] = oral treatment 5 days, 50 mg/kg, T5 vs T0

bioavailability [1]: 0.4%
AUC(0-inf) ([1]; po, 30 mg/kg): 222 ng·h/mL
AUC(0-t) ([1]; po, 30 mg/kg): 197 ng·h/mL
Cmax ([1]; po, 30 mg/kg): 57.1 ng/mL
MRT inf ([1]; po, 30 mg/kg): 9.22 h
Tmax ([1]; po, 30 mg/kg): 0.5 h
half-life ([1]; po, 30 mg/kg): 9.63 h
MIC (Escherichia Coli NK12): 4 to 8 µg/mL (≈ 5.09 to 10.2 µM)
AUC(0-inf) [2]: 1990 ng·h/mL
AUC(0-t) [2]: 1990 ng·h/mL
C0 [2]: 3760 ng/mL
Cl_obs [2]: 9.8 mL/min/kg
Cmax [2]: 2880 ng/mL
MRT inf [2]: 1.18 h
Tmax [2]: 5 min
Vss_obs [2]: 0.757 L/kg
half-life [2]: 2.45 h
MIC [3]: 0.125 to 0.25 µg/mL (≈ 0.159 to 0.318 µM)
MIC [4]: 2 to 4 µg/mL (≈ 2.54 to 5.09 µM)
MIC [5]: 0.25 to 0.5 µg/mL (≈ 0.318 to 0.636 µM)
SMILES: CO[C@H]1/C=C/O[C@@]2(C)Oc3c(C)c(O)c4c(O)c(c5c(nc6cc(C)ccn65)c4c3C2=O)NC(=O)/C(C)=C\C=C\[C@H](C)[C@H](O)[C@@H](C)[C@@H](O)[C@@H](C)[C@H](OC(C)=O)[C@@H]1C [Rifaximin, reference compound]
cell count average value Lactobacillus (Lactobacillus; T0 (before treatment)): 1.3 × 10^6
Ct Values Lactobacillus (Lactobacillus; T0 (before treatment)): 20.565 and 20.928 and 19.111 and 20.465 and 17.200 and 17.852
Cell Count Lactobacillus (Lactobacillus; T0 (before treatment)): 3.55E+05 cells per mg of stool and 2.75E+05 cells per mg of stool and 9.71E+05 cells per mg of stool and 3.80E+05 cells per mg of stool and 3.65E+06 cells per mg of stool and 2.32E+06 cells per mg of stool
cell count average value Lactobacillus (Lactobacillus; [7]): 6.6 × 10^5
Ct Values Lactobacillus (Lactobacillus; [8]): 20.364 and 19.891 and 18.746 and 19.308 and 19.872 and 20.306
Cell Count Lactobacillus (Lactobacillus; [8]): 4.07E+05 cells per mg of stool and 5.65E+05 cells per mg of stool and 1.25E+06 cells per mg of stool and 8.47E+05 cells per mg of stool and 5.73E+05 cells per mg of stool and 4.24E+05 cells per mg of stool
change in cell count for the Lactobacillus genus (Lactobacillus; [9]): no significant differences
cell count average value Enterococcus (Enterococcus; T0 (before treatment)): 9.2 × 10^6
Ct Values Eterococcus (Enterococcus; T0 (before treatment)): 23.236 and 22.741 and 14.976 and 16.124 and 18.925 and 14.203
Cell Count Eterococcus (Enterococcus; T0 (before treatment)): 5.56E+04 cells per mg of stool and 7.84E+04 cells per mg of stool and 1.71E+07 cells per mg of stool and 7.70E+06 cells per mg of stool and 1.10E+06 cells per mg of stool and 2.91E+07 cells per mg of stool
cell count average value Enterococcus (Enterococcus; [7]): 28 × 10^4
Ct Values Eterococcus (Enterococcus; [8]): 23.676 and 24.09 and 24.608 and 23.121 and 25.293 and 26.739
Cell Count Eterococcus (Enterococcus; [8]): 4.10E+04 cells per mg of stool and 3.06E+04 cells per mg of stool and .15E+04 cells per mg of stool and 6.03E+04 cells per mg of stool and 1.34E+04 cells per mg of stool and 4.91E+03 cells per mg of stool
drop in cell count for the Enterococcus genus (Enterococcus; [9]): about 100 times
cell count average value Bifidobacterium (Bifidobacterium; T0 (before treatment)): 6.87 × 10^6
Ct Values Bifidobacterium (Bifidobacterium; T0 (before treatment)): 15.880 and 14.080 and 22.166 and 21.412 and 24.420 and 23.158
Cell Count Bifidobacterium (Bifidobacterium; T0 (before treatment)): 9.11E+06 cells per mg of stool and 3.17E+07 cells per mg of stool and 1.17E+05 cells per mg of stool and 1.97E+05 cells per mg of stool and 2.45E+04 cells per mg of stool and 5.87E+04 cells per mg of stool
cell count average value Bifidobacterium (Bifidobacterium; [7]): 8.26 × 10^6
Ct Values Bifidobacterium (Bifidobacterium; [8]): 13.747 and 16.114 and 24.545 and 18.232 and 27.172 and 26.104
Cell Count Bifidobacterium (Bifidobacterium; [8]): 4.00E+07 cells per mg of stool and 7.75E+06 cells per mg of stool and 2.25E+04 cells per mg of stool and 1.79E+06 cells per mg of stool and 3.64E+03 cells per mg of stool and 7.62E+03 cells per mg of stool
decrease in the bacterial count for the Bifidobacterium genus (Bifidobacterium; [9]): no significant differences
cell count average value Enterobacter (Enterobacter; T0 (before treatment)): 2.69 × 10^6
Ct Values Enterobacter (Enterobacter; T0 (before treatment)): 17.704 and 23.688 and 16.284 and 17.749 and 17.616 and 18.371
Cell Count Enterobacter (Enterobacter; T0 (before treatment)): 2.57E+06 cells per mg of stool and 4.07E+04 cells per mg of stool and 6.89E+06 cells per mg of stool and 2.50E+06 cells per mg of stool and 2.74E+06 cells per mg of stool and 1.62E+06 cells per mg of stool
cell count average value Enterobacter (Enterobacter; [7]): 5.98 × 10^5
Ct Values Enterobacter (Enterobacter; [8]): 20.143 and 25.467 and 17.828 and 21.542 and 23.096 and 20.066
Cell Count Enterobacter (Enterobacter; [8]): 4.75E+05 cells per mg of stool and 1.19E+04 cells per mg of stool and 2.36E+06 cells per mg of stool and 1.80E+05 cells per mg of stool and 6.13E+04 cells per mg of stool and 5.01E+05 cells per mg of stool
drop in cell count for the Enterobacter genus (Enterobacter; [9]): about 10 times
solubility ([6]; in the presence of 20 mM bile acids): 72.6%
solubility ([6]; in water): 0.6%
